In the assay the target is T1, human TRH-DE (Homo sapiens, UniProt Q9UKU6).
T1 construct: expressed in transfected cells; host or cells: Expi 293 cells (transient expression), membrane fraction
T1 sequence (Q9UKU6 1-1069): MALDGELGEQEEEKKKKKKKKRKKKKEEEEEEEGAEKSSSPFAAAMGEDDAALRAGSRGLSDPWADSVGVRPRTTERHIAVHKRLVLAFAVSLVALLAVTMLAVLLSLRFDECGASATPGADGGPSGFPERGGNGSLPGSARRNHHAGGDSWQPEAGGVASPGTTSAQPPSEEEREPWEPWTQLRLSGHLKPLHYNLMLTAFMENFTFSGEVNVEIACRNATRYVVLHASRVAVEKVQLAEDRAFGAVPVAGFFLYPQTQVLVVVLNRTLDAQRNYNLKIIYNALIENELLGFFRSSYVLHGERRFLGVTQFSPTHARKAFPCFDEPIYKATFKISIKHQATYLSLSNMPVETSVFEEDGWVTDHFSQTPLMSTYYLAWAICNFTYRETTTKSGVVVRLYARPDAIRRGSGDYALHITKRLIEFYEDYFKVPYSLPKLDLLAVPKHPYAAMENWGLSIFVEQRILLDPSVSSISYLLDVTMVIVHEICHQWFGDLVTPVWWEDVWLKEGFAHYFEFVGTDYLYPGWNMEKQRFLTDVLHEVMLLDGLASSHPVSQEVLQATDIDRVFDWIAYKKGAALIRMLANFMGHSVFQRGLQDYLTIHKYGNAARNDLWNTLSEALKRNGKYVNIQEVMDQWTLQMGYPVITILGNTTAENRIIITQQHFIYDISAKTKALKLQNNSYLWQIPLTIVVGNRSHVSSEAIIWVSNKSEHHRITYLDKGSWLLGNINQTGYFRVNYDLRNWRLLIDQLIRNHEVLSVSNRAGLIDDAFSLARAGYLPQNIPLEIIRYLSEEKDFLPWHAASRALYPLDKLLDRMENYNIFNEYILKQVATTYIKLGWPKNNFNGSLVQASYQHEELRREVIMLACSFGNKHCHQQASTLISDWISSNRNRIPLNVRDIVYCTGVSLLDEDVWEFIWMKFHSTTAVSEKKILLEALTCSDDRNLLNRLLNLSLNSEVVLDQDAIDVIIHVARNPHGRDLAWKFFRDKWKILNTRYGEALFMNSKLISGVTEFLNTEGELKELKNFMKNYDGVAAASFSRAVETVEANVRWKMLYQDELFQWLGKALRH
Put plainly: TRH-DE inhibition test (RapidFire MS measurement of product Cyclo (His-Pro)). Format: biochemical. To be noted: membrane fraction of Expi 293 cells expressing human TRH-DE; 10 μM TRH substrate; room temperature, 2 hours; 16-point concentration test. A digest of the protocol: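 Inhibition derived from product/internal-standard ratios of Cyclo(His-Pro), quantified by RapidFire triple-quadrupole MS after acetonitrile:methanol quench, with IC50 fitted over 16 concentrations. Enzyme source: membranes of Expi 293 cells transiently expressing human TRH-DE, 4 μg/ml, pH 7.4 phosphate buffer. Incubation with 10 μM substrate ran 2 h at room temperature.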

For the compound `C[C@@H]1COc2cc(N(C)C3CCCC3)ncc2C(=O)N1C1CC2(C1)CN(S(=O)(=O)c1ccccc1F)C2` [Example 137], the IC50 – broadly, the point on the concentration scale where inhibition reaches its midpoint – amounted to 0.001 µM. This lies in the single-digit nanomolar range.
`C[C@@H]1CCn2nc(F)c(Br)c2C(=O)N1C1CC2(C1)CN(S(=O)(=O)c1ccccc1F)C2` [Example 196] came in with a 50% inhibitory concentration (IC50) of 0.015 µM.
`Cc1onc2c1C=C[C@@H](C)N(C1CC3(C1)CN(S(=O)(=O)c1ccccc1F)C3)C2=O` [Example 130] showed an IC50 of 0.136 µM.
In turn, `COc1ncc2c(n1)OC[C@@H](C)N(C1CC3(C1)CN(S(=O)(=O)c1ccccc1F)C3)C2=O` [Example 370] yielded an IC50 of 0.008 µM. Against the preceding compound, the IC50 is about 17-fold lower.
With `C[C@@H]1CCn2ncc(Br)c2C(=O)N1C1CC2(C1)CN(S(=O)(=O)c1ccccc1F)C2` [Example 195], it took 0.035 µM to reach half-maximal inhibition (IC50).
In turn, `C[C@@H]1CCN(CCC(F)(F)F)CC(=O)N1C1CC2(C1)CN(S(=O)(=O)c1ccccc1F)C2` [Example 448] showed an IC50 of 0.474 µM.
For the compound `CC1CSCC(=O)N1C1CC2(C1)CN(S(=O)(=O)c1ccccc1F)C2` (centres unmarked) [Example 441, 4-[2-(2-fluorophenyl)sulfonyl-2-azaspiro[3.3]heptan-6-yl]-5-methylthiomorpholin-3-one], the half-inhibitory concentration (IC50) was determined as 0.247 µM.
Take `CC1COc2ncccc2C(=O)N1C1CC2(C1)CN(S(=O)(=O)c1ccccc1F)C2` (racemic) [Example 63]: the IC50 worked out at 0.022 µM.
Next, `C[C@@H]1CCn2nc3c(c2C(=O)N1C1CC2(C1)CN(S(=O)(=O)c1ccccc1F)C2)CCC3` [Example 198]: 0.014 µM.
Compound `C[C@H]1CCn2nc(C3(F)CC3)cc2C(=O)N1C1CC2(C1)CN(S(=O)(=O)c1ccccc1F)C2` [Example 191] returned a concentration for half-maximal inhibition (IC50) of 0.086 µM.
Regarding `CCCN(C(=O)c1cccnc1NC1CC1)C1CC2(C1)CN(S(=O)(=O)c1cc(C)ccc1F)C2` [Example 429], the IC50 turned out to be 0.014 µM.
The figure for `CC1CCc2nc(C(F)(F)F)sc2C(=O)N1C1CC2(C1)CN(S(=O)(=O)c1ccccc1F)C2` (single isomer, unassigned) [Example 353] is 0.066 µM; for `C[C@@H]1COc2ccc(C(F)(F)F)nc2C(=O)N1C1CC2(C1)CN(S(=O)(=O)c1ccccc1F)C2` [Example 17] it is 0.008 µM; for `CC1C=Cc2c(noc2C2CC2)C(=O)N1C1CC2(C1)CN(S(=O)(=O)c1ccccc1F)C2` (racemic) [Example 131] it is 0.032 µM.
For the compound `C[C@@H]1CCn2nc(F)c(C3CC3)c2C(=O)N1C1CC2(C1)CN(S(=O)(=O)c1ccccc1F)C2` [Example 320], the half-inhibitory concentration (IC50) was determined as 0.072 µM.
Regarding `C[C@@H]1CCc2nc(C3(F)CC3)sc2C(=O)N1C1CC2(C1)CN(S(=O)(=O)c1ccccc1F)C2` [Example 109, (6R)-2-(1-fluorocyclopropyl)-5-[2-(2-fluorophenyl)sulfonyl-2-azaspiro[3.3]heptan-6-yl]-6-methyl-7,8-dihydro-6H-thiazolo[5,4-c]azepin-4-one], it took 0.003 µM to reach half-maximal inhibition (IC50). This IC50 lies about 24-fold lower than the previous one.
Next, `C[C@@H]1CCc2nc([C@@H]3C[C@@H]3F)sc2C(=O)N1C1CC2(C1)CN(S(=O)(=O)c1ccccc1F)C2` [Example 96]: 0.002 µM; `CC(C)c1nc2c(s1)C(=O)N(C1CC3(C1)CN(S(=O)(=O)c1ccccc1F)C3)[C@H](C)CC2` [Example 110, (6R)-5-[2-(2-fluorophenyl)sulfonyl-2-azaspiro[3.3]heptan-6-yl]-2-isopropyl-6-methyl-7,8-dihydro-6H-thiazolo[5,4-c]azepin-4-one]: 0.004 µM; `C[C@@H]1CNc2cc(Cl)cnc2C(=O)N1C1CC2(C1)CN(S(=O)(=O)c1ccccc1F)C2` [Example 253]: 0.008 µM.
Take `Cc1nc2c(cc1Br)C(=O)N(C1CC3(C1)CN(S(=O)(=O)c1ccccc1F)C3)[C@H](C)CO2` [Example 37]: the midpoint of inhibition, the IC50, lay at 0.006 µM. This IC50 and that of the compound before are within 1.5-fold of each other.
Next, `CC1CC(F)(F)c2ncccc2C(=O)N1C1CC2(C1)CN(S(=O)(=O)c1ccccc1F)C2` (centres unmarked) [Example 300, 9,9-Difluoro-6-[2-(2-fluorophenyl)sulfonyl-2-azaspiro[3.3]heptan-6-yl]-7-methyl-7,8-dihydropyrido[3,2-c]azepin-5-one]: 0.168 µM; `CC1CCc2ncccc2C(=O)N1C1CC2(C1)CN(S(=O)(=O)c1ccccc1F)C2` (racemic) [Example 87]: 0.049 µM.
Compound `O=C1c2cccnc2OCC2(CC2)N1C1CC2(C1)CN(S(=O)(=O)c1ccccc1F)C2` [Example 61] registered an IC50 of 0.653 µM.
`COc1ccc2c(n1)C(=O)N(C1CC3(C1)CN(S(=O)(=O)c1ccccc1F)C3)C2C` (racemic) [Example 294]: the half-inhibitory concentration (IC50) came out at 0.118 µM. This IC50 lies about 5.5-fold lower than the previous one.
Compound `Cc1nsc2c1C(=O)N(C1CC3(C1)CN(S(=O)(=O)c1ccccc1F)C3)[C@H](C)C=C2` [Example 127] registered an IC50 of 0.021 µM. This IC50 lies about 5.6-fold lower than the previous one.
The figure for `C[C@@H]1C=Cc2nc(C(C)(F)F)sc2C(=O)N1C1CC2(C1)CN(S(=O)(=O)c1ccccc1F)C2` [Example 117] is 0.046 µM; for `CC1(O)c2cccnc2C(=O)N1C1CC2(C1)CN(S(=O)(=O)c1ccccc1F)C2` (racemic) [Example 278] it is 0.146 µM.
On to `CC1c2ccccc2N(C)C(=O)CN1C1CC2(C1)CN(S(=O)(=O)c1ccccc1F)C2` (centres unmarked) [Example 248], for which the IC50 is 0.731 µM. This IC50 is about 5-fold higher than that of the compound before.
Next, `C[C@@H]1CCc2nc(C(C)(F)F)sc2C(=O)N1C1CC2(C1)CN(S(=O)(=O)c1ccccc1F)C2` [Example 91]: 0.008 µM; `CCc1nc2c(s1)C(=O)N(C1CC3(C1)CN(S(=O)(=O)c1ccccc1F)C3)C(C)CO2` (racemic) [Example 177]: 0.018 µM; `CCC1COc2cccnc2C(=O)N1C1CC2(C1)CN(S(=O)(=O)c1ccccc1F)C2` (racemic) [Example 50]: 0.019 µM.
`C[C@@H]1COc2cc(N3CC[C@H](F)C3)ncc2C(=O)N1C1CC2(C1)CN(S(=O)(=O)c1ccccc1F)C2` [Example 143] showed an IC50 of 0.001 µM. Against the preceding compound, the IC50 is about 19-fold lower.
As for `C[C@@H]1COc2nc(N3CCCOCC3)ncc2C(=O)N1C1CC2(C1)CN(S(=O)(=O)c1ccccc1F)C2` [Example 384], the half-inhibitory concentration (IC50) came out at 0.005 µM.
Turning to `C[C@@H]1COc2nc(Cl)ncc2C(=O)N1C1CC2(C1)CN(S(=O)(=O)c1ccccc1F)C2` [Example 6], inhibition was half-maximal at 0.013 µM (IC50).
Compound `C[C@@H]1CCn2nc(C3CC3)cc2C(=O)N1C1CC2(C1)CN(S(=O)(=O)c1ccccc1F)C2` [Example 188] had a half-inhibitory concentration (IC50) of 0.008 µM.
Regarding `CC1(O)c2ccc(F)cc2C(=O)N1C1CC2(C1)CN(S(=O)(=O)c1ccccc1F)C2` (racemic) [Example 277], the IC50 was found to be 0.102 µM.
In the case of `C[C@@H]1CCN2CCC[C@H]2C(=O)N1C1CC2(C1)CN(S(=O)(=O)c1ccccc1F)C2` [Example 222], the IC50 is 0.449 µM.
Compound `C[C@@H]1COc2noc(C3CC3)c2C(=O)N1C1CC2(C1)CN(S(=O)(=O)c1ccccc1F)C2` [Example 220] came in with an IC50 of 0.012 µM.
Regarding `C[C@@H]1CCn2c(nnc2-c2ccccc2)C(=O)N1C1CC2(C1)CN(S(=O)(=O)c1ccccc1F)C2` [Example 263], it took 0.032 µM to reach half-maximal inhibition (IC50).
With `C[C@@H]1COc2cc(Nc3ccc(F)cc3)ncc2C(=O)N1C1CC2(C1)CN(S(=O)(=O)c1ccccc1F)C2` [Example 140], the 50% inhibitory concentration (IC50) worked out at 0.001 µM. This IC50 lies about 32-fold lower than the previous one.
`CC1COc2c(F)cncc2C(=O)N1C1CC2(C1)CN(S(=O)(=O)c1ccccc1F)C2` (racemic) [Example 21] had a concentration for half-maximal inhibition (IC50) of 0.016 µM.
Take `CC1COc2cnccc2C(=O)N1C1CC2(C1)CN(S(=O)(=O)c1ccccc1F)C2` (racemic) [Example 54]: half-maximal inhibition (IC50) was put at 0.014 µM.
Regarding `CC1CCc2nc(C(F)(F)F)sc2C(=O)N1C1CC2(C1)CN(S(=O)(=O)c1ccccc1F)C2` (single isomer, unassigned) [Example 352], half-maximal inhibition (IC50) required 0.011 µM.
The compound `CC1c2ccccc2C(=O)N1C1CC2(C1)CN(S(=O)(=O)c1ccccc1)C2` (racemic) [Example 267] returned an IC50 of 0.664 µM. Against the preceding compound, the IC50 is about 60-fold higher.
Regarding `C[C@@H]1COc2cc(N3CC(F)(F)C(F)(F)C3)ncc2C(=O)N1C1CC2(C1)CN(S(=O)(=O)c1ccccc1F)C2` [Example 147], 0.001 µM corresponded to half-maximal inhibition (IC50).
With `C[C@@H]1CCN(C(=O)C2(F)CC2)CC(=O)N1C1CC2(C1)CN(S(=O)(=O)c1ccccc1F)C2` [Example 452], the IC50 came to 0.088 µM.
Take `CC1c2ccccc2C(=O)N1C1CC2(C1)CN(S(=O)(=O)c1ccccc1F)C2` (centres unmarked) [Example 266, 2-[2-(2-fluorophenyl)sulfonyl-2-azaspiro[3.3]heptan-6-yl]-3-methyl-isoindolin-1-one]: the midpoint of inhibition, the IC50, lay at 0.092 µM.

The values are drawn from patent US20260132127A1, “NOVEL SPIRO COMPOUND” (MITSUBISHI TANABE PHARMA CORPORATION, priority 2021, published 2026).
